SMILES strings stand for the structures. A value given as a limit tells only on which side of the number the result lay.

The assay deals with pY641-STAT6 in Peripheral Blood Mononuclear Cells (PBMC). The assay is described as follows: MSD-pSTAT-PBMC Assay (pSTAT6, IL-4 stimulated). The class given is cell-based, Human. Particulars: Homo sapiens, compound 3 hrs, then 1 ng/mL IL-4 for 10 min. An excerpt: Cryopreserved Peripheral Blood Mononuclear Cells (PBMC) are from AllCells. Recombinant Human IL-4 and IL-6 are from Peprotech. Mouse monoclonal anti-STAT3 antibody, rabbit monoclonal anti-pY705-STAT3 antibody, rabbit monoclonal Anti-pY641-STAT6 antibody, and lysis buffer are from Cell Signaling Technology (CST). Mouse monoclonal anti-STAT6 antibody is from BioLegend. Assay plates, blocker, and anti-rabbit secondary antibody are from Meso Scale Discovery (MSD).
Cryopreserved PBMCs were thawed out and allowed to recover overnight in IMDM+10% heat-inactivated FBS prior to plating 50,000 (STAT3) or 25,000 (STAT6) cells per well in 96-well U-bottom tissue culture plates. Cells were treated with compound for 3 hrs, then stimulated with 10 ng/mL IL-6 (STAT3) or 1 ng/mL IL-4 (STAT6) for 10 min. Cells were then spun down and washed with ice-cold PBS prior to lysing the cell pellet with 1× lysis buffer (CST) with 1×HALT protease and phosphatase inhibitor cocktail (Thermo). Lysates were transferred to and incubated overnight at 4° C. with shaking in QuickPlex 96-well high bind assay plates (MSD) pre-coated overnight with 30 μL per well of 0.6 μg/mL mouse monoclonal anti-STAT3 antibody (STAT3) or 2 μg/mL mouse monoclonal anti-STAT6 antibody (STAT6) in 1×PBS, and pre-blocked for 1 hour with 3% Blocker-A (MSD). Captured protein in the assay plates were then washed and probed with 25 μL per well of 0.25 μg/ml rabbit monoclonal anti-pY705-STAT3 antibody (STAT3) or […] rabbit monoclonal Anti-pY641-STAT6 antibody (STAT6) in 1% Blocker-A for 1 hour at room temperature with shaking, then washed and probed with 25 ul per well of 1 ug/ml Sulfo-TAG Labeled Goat Anti-Rabbit Antibody (MSD) in 1% Blocker-A for 1 hour at room temperature with shaking. Assay plates were then washed and 150 μL of 1× Read Buffer-T (MSD) was added to each well prior to reading on an SQ120 MSD Plate Reader. Assay signal from each sample was subtracted by the signal from unstimulated control wells and normalized to DMSO control wells. IC50 values were calculated using Graph Pad Prism Dose-Response Nonlinear Regression with variable slope. For both pSTAT3 and pSTAT6 A=≤100 nM; B=>100-1000 nM; C=>1000-3000 nM; and D=>3 μM.
The compound `CCCOC(=O)[C@H](C)NP(=O)(Oc1ccccc1)C(F)c1ccc2ccc(C(=O)N[C@H]3CN(C(=O)c4noc5ccc(C)cc45)CC[C@H]4CC[C@@H](C(=O)N5C[C@@H]6C[C@H]5CO6)N4C3=O)cc2c1` (stereo partly drawn) [Compound 414, propyl (((7-(((5S,8S,10aR)-8-((1S,4S)-2-oxa-5-azabicyclo [2.2.1]heptane-5-carbonyl)-3-(5-methylbenzo [d]isoxazole-3-carbonyl)-6-oxodeca-hydropyrrolo [1,2-a][1,5]diazocin-5-yl)carbamoyl)naphthalen-2-yl)fluoromethyl) (phenoxy)phosphoryl)-L-alaninate] showed an IC50 of at most 100 nM.
For the compound `CCCOC(=O)[C@H](C)NP(=O)(Oc1ccccc1)C(F)c1ccc2ccc(C(=O)N[C@H]3CN(C(=O)c4noc5ccc(C)cc45)CC[C@H]4CC[C@@H](C(=O)N5CCOC(Cc6ccccc6)C5)N4C3=O)cc2c1` (stereo partly drawn) [Compound 415, propyl (((7-(((5S,8S,10aR)-8-(2-benzyl-morpholine-4-carbonyl)-3-(5-methylbenzo [d]isoxazole-3-carbonyl)-6-oxodeca-hydropyrrolo [1,2-a][1,5]diazocin-5-yl)carbamoyl)naphthalen-2-yl)fluoromethyl) (phenoxy)phosphoryl)-L-alaninate], the IC50 lay within 100 to 1000 nM.
Take `CCCOC(=O)[C@H](C)NP(=O)(Oc1ccccc1)[C@@H](F)c1ccc2ccc(C(=O)N[C@H]3CN(C(=O)c4noc5ccc(C)cc45)CC[C@H]4CC[C@@H](C(=O)N5CC6CCC(C5)O6)N4C3=O)cc2c1` (stereo partly drawn) [Compound 416, propyl (((1R)-(7-(((5S,8S,10aR)-8-(8-oxa-3-azabicyclo [3.2.1]octane-3-carbonyl)-3-(5-methylbenzo [d]isoxazole-3-carbonyl)-6-oxodeca-hydropyrrolo [1,2-a][1,5]diazocin-5-yl)carbamoyl)naphthalen-2-yl)fluoromethyl) (phenoxy)phosphoryl)-L-alaninate]: the IC50 is at most 100 nM.
Compound `CCCOC(=O)[C@H](C)NP(=O)(Oc1ccccc1)[C@H](F)c1ccc2ccc(C(=O)N[C@H]3CN(C(=O)c4noc5ccc(C)cc45)CC[C@H]4CC[C@@H](C(=O)N5C[C@@H](c6ccn(C)c(=O)c6)CC56CC6)N4C3=O)cc2c1` (stereo partly drawn) [Compound 417, propyl (((S)-fluoro(7-(((5S,8S,10a R)-8-((R)-6-(1-methyl-2-oxo-1,2-dihydro-pyridin-4-yl)-4-azaspiro[2.4]heptane-4-carbonyl)-3-(5-methylbenzo [d]isoxazole-3-carbonyl)-6-oxodeca-hydropyrrolo [1,2-a][1,5]diazocin-5-yl)carbamoyl)naphthalen-2-yl)methyl) (phenoxy)phosphoryl)-L-alaninate] returned an IC50 of at most 100 nM.
`CCCOC(=O)[C@H](C)NP(=O)(Oc1ccccc1)[C@@H](F)c1ccc2ccc(C(=O)N[C@H]3CN(C(=O)c4noc5ccc(C)cc45)CC[C@H]4CC[C@@H](C(=O)N5C(=O)N(c6cccnc6)C(=O)C56CC6)N4C3=O)cc2c1` (stereo partly drawn) [Compound 418, propyl (((R)-(7-(((5S,8S,10aR)-8-(5,7-dioxo-6-(pyridin-3-yl)-4,6-diazaspiro [2.4]heptane-4-carbonyl)-3-(5-methylbenzo [d]isoxazole-3-carbonyl)-6-oxodeca-hydropyrrolo [1,2a][1,5]diazocin-5-yl)carbamoyl)naphthalen-2-yl)fluoromethyl) (phenoxy)phosphoryl)-L-alaninate]: the IC50 is at most 100 nM.
In the case of `CCCOC(=O)[C@H](C)NP(=O)(Oc1ccccc1)[C@H](F)c1ccc2ccc(C(=O)N[C@H]3CN(C(=O)c4noc5ccc(C)cc45)CC[C@H]4CC[C@@H](C(=O)N5C[C@H](c6ccn(C)c(=O)c6)CC56CC6)N4C3=O)cc2c1` (stereo partly drawn) [Compound 419, propyl (((S)-fluoro(7-(((5S,8S,10aR)-8-((S)-6-(1-methyl-2-oxo-1,2-dihydropyridin-4-yl)-4-azaspiro[2.4]heptane-4-carbonyl)-3-(5-methylbenzo [d]isoxazole-3-carbonyl)-6-oxodeca-hydropyrrolo [1,2-a][1,5]diazocin-5-yl)carbamoyl)naphthalen-2-yl)methyl) (phenoxy)phosphoryl)-L-alaninate] it was at most 100 nM.
`CCCOC(=O)[C@H](C)NP(=O)(Oc1ccccc1)[C@@H](F)c1ccc2ccc(C(=O)N[C@H]3CN(C(=O)c4noc5ccc(C)cc45)CC[C@H]4CC[C@@H](C(=O)N5C[C@@H](c6ccn(C)c(=O)c6)CC56CC6)N4C3=O)cc2c1` (stereo partly drawn) [Compound 420, propyl (((R)-fluoro(7-(((5S,8S,10aR)-8-((R)-6-(1-methyl-2-oxo-1,2-dihydropyridin-4-yl)-4-azaspiro[2.4]heptane-4-carbonyl)-3-(5-methylbenzo [d]isoxazole-3-carbonyl)-6-oxodeca-hydropyrrolo [1,2-a][1,5]diazocin-5-yl)carbamoyl)naphthalen-2-yl)methyl) (phenoxy)phosphoryl)-L-alaninate] yielded an IC50 of at most 100 nM.
In the case of `CCCOC(=O)[C@H](C)NP(=O)(Oc1ccccc1)[C@@H](F)c1ccc2ccc(C(=O)N[C@H]3CN(C(=O)c4noc5ccc(C)cc45)CC[C@H]4CC[C@@H](C(=O)N5C[C@H](c6ccn(C)c(=O)c6)CC56CC6)N4C3=O)cc2c1` (stereo partly drawn) [Compound 421, propyl (((R)-fluoro(7-(((5S,8S,10aR)-8-((S)-6-(1-methyl-2-oxo-1,2-dihydropyridin-4-yl)-4-azaspiro [2.4]heptane-4-carbonyl)-3-(5-methylbenzo [d]isoxazole-3-carbonyl)-6-oxodeca-hydropyrrolo [1,2-a] [1,5]diazocin-5-yl)carbamoyl)naphthalen-2-yl)methyl) (phenoxy)phosphoryl)-L-alaninate] it was at most 100 nM.
In the case of `CCCOC(=O)[C@H](C)NP(=O)(Oc1ccccc1)C(F)c1ccc2ccc(C(=O)N[C@H]3CCN(C(=O)c4cc(C)cc(Cl)c4)C[C@H]4CC[C@@H](C(=O)N5CCOCC5)N4C3=O)cc2c1` (stereo partly drawn) [Compound 422, propyl (((7-(((5S,8S,10aR)-2-(3-chloro-5-methylbenzoyl)-8-(morpholine-4-carbonyl)-6-oxodeca-hydropyrrolo [1,2-a][1,4]diazocin-5-yl)carbamoyl)naphthalen-2-yl)fluoromethyl) (phenoxy)phosphoryl)-L-alaninate] it was 1000 to 3000 nM; in that of `CCCOC(=O)[C@H](C)NP(=O)(Oc1ccccc1)C(F)c1ccc2ccc(C(=O)N[C@H]3CN(C(=O)c4ncn5ccccc45)CC[C@H]4CC[C@@H](C(=O)N5CCOCC5)N4C3=O)cc2c1` (stereo partly drawn) [Compound 423, propyl ((fluoro(7-(((5S,8S,10aR)-3-(imidazo[1,5-a]pyridine-1-carbonyl)-8-(morpholine-4-carbonyl)-6-oxodecahydro-pyrrolo [1,2-a][1,5]diazocin-5-yl)carbamoyl)naphthalen-2-yl)methyl) (phenoxy)phosphoryl)-L-alaninate], above 3000 nM.
In the case of `CCCOC(=O)[C@H](C)NP(=O)(Oc1ccccc1)C(F)c1ccc2ccc(C(=O)N[C@H]3CN(C(=O)c4noc5cc(OC)ccc45)CC[C@H]4CC[C@@H](C(=O)N5CCOCC5)N4C3=O)cc2c1` (stereo partly drawn) [Compound 424, propyl ((fluoro(7-(((5S,8S,10aR)-3-(6-methoxybenzo[d]isoxazole-3-carbonyl)-8-(morpholine-4-carbonyl)-6-oxodeca-hydropyrrolo [1,2-a][1,5]diazocin-5-yl)carbamoyl)naphthalen-2-yl)methyl) (phenoxy)phosphoryl)-L-alaninate] it was 1000 to 3000 nM.

For orientation: IC50 means the midpoint of a concentration-inhibition curve. Higher therefore signals weaker potency in that assay.

Values taken from patent publication US20250179103A1, “6-OXODECAHYDROPYRROLO[1,2-A][1,5]DIAZOCINE AND 6-OXODECAHYDRO-4H-PYRROLO[2,1-D][1,5]THIAZOCINE DERIVATIVES AS STAT3 AND STAT6 MODULATORS FOR THE TREATMENT OF CANCER AND INFLAMMATORY CONDITIONS” (Recludix Pharma, Inc., priority 2022, published 2025).
